Laboratory results from patent US12414961B2, “Substituted nucleosides and nucleotides for treating viral infections” (priority 2013, dated 2025).

Columns and labels:
Cytotoxicity (CC50) CEM = details: human, CEM cells
[1] = Cytotoxicity (CC50) Huh-7; details: human, Huh-7 cells
[2] = Cytotoxicity (CC50) HepG2; details: human, HepG2 cells
[3] = Cytotoxicity in Huh-7 cells (Dengue assay); details: human, Huh-7 cells
Dengue Type 2 [4] = experiment: Anti-Dengue virus cytoprotection assay, Huh-7 cells; details: Huh-7, read-out: Dengue Type 2 Huh-7 Cells (EC50 uM)
Influenza A H3N2 = Influenza A H3N2 antiviral assay; format: cell-based; details: Influenza A virus, H3N2, read-out: Influenza A H3N2 EC50
Tacaribe Virus = experiment: microbe, parasite or virus in culture; format: cell-based, TCRV; details: Mammarenavirus tacaribeense, read-out: Tacaribe Virus EC50
Dengue Virus = Dengue Virus screening assay; format: cell-based, DENV
Measles = Measles antiviral assay; format: cell-based, Measles virus; details: Measles morbillivirus
[5] = system: Influenza A H5N1 (low path); experiment: microbe, parasite or virus in culture; format: cell-based; details: H5N1, read-out: Influenza A H5N1 (low path) EC50
Influenza A H1N1 = Influenza A H1N1 antiviral assay; format: cell-based; details: Influenza A virus, H1N1, read-out: Influenza A H1N1 EC50
Influenza B = Influenza B antiviral assay; format: cell-based; details: Influenza B virus
RSV = RSV antiviral assay; format: cell-based; details: human respiratory syncytial virus
VEEV = experiment: microbe, parasite or virus in culture; format: cell-based; details: Venezuelan equine encephalitis virus, read-out: VEEV EC50
West Nile Virus = West Nile Virus screening assay; format: cell-based, WNV; details: read-out: West Nile Virus EC50
RVFV = experiment: microbe, parasite or virus in culture; format: cell-based; details: Rift Valley fever virus, read-out: RVFV EC50
CHIK Virus = CHIK Virus screening assay; format: cell-based, CHIKV; details: Chikungunya virus, read-out: CHIK Virus EC50
SARS = experiment: microbe, parasite or virus in culture; format: cell-based; details: Severe acute respiratory syndrome coronavirus, read-out: SARS EC50
IEC-6 = experiment: Cytotoxicity (CC50) IEC-6; format: cell-based; details: IEC-6
CEM = experiment: Cytotoxicity (CC50) CEM; details: read-out: Cytotoxicity (CC50 uM) CEM; CEM
H9c = experiment: Cytotoxicity (CC50) H9c; format: cell-based; details: H9c
BxPC3 = experiment: Cytotoxicity (CC50) BxPC3; details: read-out: Cytotoxicity (CC50 uM) BxPC3; BxPC3
Huh-7 = experiment: Cytotoxicity (CC50) Huh-7; details: read-out: Cytotoxicity (CC50 uM) Huh-7; Huh-7
HepG2 = experiment: Cytotoxicity (CC50) HepG2; details: read-out: Cytotoxicity (CC50 uM) HepG2; HepG2
A204 = experiment: Cytotoxicity (CC50) A204; format: cell-based; details: A204
GT1b replicon cells = experiment: Cytotoxicity in GT1b replicon cells; format: cell-based
[6] = Cytotoxicity in Vero cells (Dengue assay); details: African green monkey
Dengue Type 2 [7] = experiment: Anti-Dengue virus cytoprotection assay, Vero cells; details: read-out: Dengue Type 2 Vero Cells (EC50 uM)

Row | Structure (SMILES) | EC50 (Influenza A H3N2) | EC50 (Tacaribe Virus) | EC50 (Dengue Virus) | EC50 (Measles) | EC50 [5] | EC50 (Influenza A H1N1) | EC50 (Influenza B) | EC50 (RSV) | EC50 (VEEV) | EC50 (West Nile Virus) | EC50 (RVFV) | EC50 (CHIK Virus) | EC50 (SARS) | also measured
1 | CC(C)OC(=O)[C@H](C)NP(=O)(OC[C@@]1(N=[N+]=[N-])O[C@@H](n2ccc(=S)[nH]c2=O)C(O)[C@H]1O)Oc1ccccc1 (stereo partly drawn) | – | – | – | – | – | – | – | – | – | – | – | – | – | CC50 (Cytotoxicity (CC50) CEM): 229 µM; CC50 [1]: > 400 µM; CC50 [2]: > 400 µM; CC50 [3]: > 100 µM; EC50 (Dengue Type 2 [4]): 4.82 µM
2 | CNc1ccn([C@@H]2O[C@H](CO)[C@H](O)C2F)c(=O)n1 (stereo partly drawn) [EFVX-01853] | > 100 µM | > 100 µg/mL | > 100 µg/mL | > 100 µM | > 100 µM | > 100 µM | > 100 µM | > 100 µM | > 100 µg/mL | > 100 µg/mL | > 100 µg/mL | > 100 µg/mL | > 100 µM | –
3 | CN(C)c1ccn([C@@H]2O[C@H](CO)[C@H](O)C2F)c(=O)n1 (stereo partly drawn) [EFVX-01854] | > 100 µM | > 100 µg/mL | > 100 µg/mL | > 100 µM | > 100 µM | > 100 µM | > 100 µM | > 100 µM | > 100 µg/mL | > 100 µg/mL | > 100 µg/mL | > 100 µg/mL | > 100 µM | –
4 | Cc1cn([C@@H]2O[C@H](CO)[C@H](O)C2F)c(=O)nc1N (stereo partly drawn) [EFVX-01855] | > 100 µM | > 100 µg/mL | > 100 µg/mL | > 100 µM | > 100 µM | > 100 µM | > 100 µM | > 100 µM | > 100 µg/mL | > 100 µg/mL | > 100 µg/mL | > 100 µg/mL | > 100 µM | –
5 | Nc1nc(=O)n([C@@H]2O[C@H](CO)[C@H](O)C2F)cc1CO (stereo partly drawn) [EFVX-01856] | > 100 µM | > 100 µg/mL | > 100 µg/mL | > 100 µM | > 100 µM | > 100 µM | > 100 µM | > 100 µM | > 100 µg/mL | > 100 µg/mL | > 100 µg/mL | > 100 µg/mL | > 100 µM | –
6 | Nc1ccn([C@@H]2O[C@H](CO)[C@H](O)C2F)c(=S)n1 (stereo partly drawn) [EFVX-01857] | > 100 µM | > 100 µg/mL | > 100 µg/mL | > 100 µM | > 100 µM | > 100 µM | > 100 µM | > 100 µM | > 100 µg/mL | > 100 µg/mL | > 100 µg/mL | > 100 µg/mL | > 87 µM | –
7 | CC(C)OC(=O)[C@H](C)NP(=O)(OC[C@H]1O[C@@H](n2ccc(=O)[nH]c2=S)[C@](C)(O)C1O)Oc1ccccc1 (stereo partly drawn) [drawing 366] | – | – | – | – | – | – | – | – | – | – | – | – | – | CC50 (IEC-6): > 200 µM; CC50 (CEM): > 300 µM; CC50 (H9c): > 200 µM; CC50 (BxPC3): > 300 µM; CC50 (Huh-7): > 400 µM; CC50 (HepG2): > 400 µM; CC50 (A204): 98 µM
8 | CC(C)OC(=O)[C@H](C)NP(=O)(OC[C@H]1O[C@@H](n2ccc(=O)[nH]c2=S)[C@](C)(O)C1O)Oc1ccccc1 (stereo partly drawn) [drawing 369] | – | – | – | – | – | – | – | – | – | – | – | – | – | CC50 (IEC-6): > 200 µM; CC50 (BxPC3): > 300 µM; CC50 (A204): 98 µM
9 | CC(C)OC(=O)[C@H](C)N[P@](=O)(OC[C@H]1O[C@@H](n2ccc(=O)[nH]c2=S)[C@](C)(O)C1O)Oc1ccccc1 (stereo partly drawn) [drawing 371] | – | – | – | – | – | – | – | – | – | – | – | – | – | CC50 (CEM): > 400 µM; CC50 (Huh-7): 252 µM; CC50 (HepG2): > 400 µM
10 | CC(C)OC(=O)[C@H](C)N[P@](=O)(OC[C@H]1O[C@@H](n2ccc(=O)[nH]c2=O)[C@](C)(F)C1O)Oc1ccccc1 (stereo partly drawn) [drawing 373] | – | – | – | – | – | – | – | – | – | – | – | – | – | CC50 (CEM): > 400 µM; CC50 (Huh-7): 279 µM; CC50 (HepG2): 365 µM
11 | CC(C)OC(=O)[C@H](C)NP(=O)(OC[C@H]1O[C@@H](n2ccc(=O)[nH]c2=S)[C@](C)(O)C1O)Oc1ccccc1 (stereo partly drawn) [drawing 383] | – | – | – | – | – | – | – | – | – | – | – | – | – | CC50 (GT1b replicon cells): > 10 µM
12 | CC(C)OC(=O)[C@H](C)N[P@](=O)(OC[C@H]1O[C@@H](n2ccc(=O)[nH]c2=S)[C@](C)(O)C1O)Oc1ccccc1 (stereo partly drawn) [drawing 384] | – | – | – | – | – | – | – | – | – | – | – | – | – | CC50 (GT1b replicon cells): > 10 µM
13 | CC(C)OC(=O)[C@H](C)N[P@](=O)(OC[C@H]1O[C@@H](n2ccc(=O)[nH]c2=O)[C@](C)(F)C1O)Oc1ccccc1 (stereo partly drawn) [drawing 385] | – | – | – | – | – | – | – | – | – | – | – | – | – | CC50 (GT1b replicon cells): > 2 µM
14 | CC(C)OC(=O)[C@H](C)N[P@](=O)(OC[C@H]1O[C@@H](n2ccc(=O)[nH]c2=S)C(C)(O)[C@H]1O)Oc1ccccc1 (stereo partly drawn) [drawing 388] | – | – | – | – | – | – | – | – | – | – | – | – | – | CC50 (Cytotoxicity (CC50) CEM): > 400 µM; CC50 [6]: > 100 µM; CC50 [1]: 252 µM; CC50 [2]: > 400 µM; EC50 (Dengue Type 2 [7]): 2.35 µM; CC50 [3]: > 100 µM; EC50 (Dengue Type 2 [4]): 5.62 µM
